From patent US20120149657A1, “2'-FLUORO ARABINO NUCLEOSIDES AND USE THEREOF” (Southern Research Institute, priority 2009, published 2012)
Marks after values point to notes of the source that are not given here. Each block holds one compound with its values, some of them ahead of it.

Tests used:
CCRF-CEM leukemia = test: In vitro cytotoxicity (MTS, 72 h), CCRF-CEM; format: cell-based, human; conditions: for IC50: Homo sapiens, CCRF-CEM, 72 hours of incubation
Experimental: (§1) The concentration of compound required to inhibit cell growth by 50% (IC50) after 72 hours of incubation was determined for each unprotected analog with eight human tumor cell lines (SNB-7 CNS, DLD-1 colon, CCRF-CEM leukemia, NCI-H23 NSCL, ZR-75-1 breast, LOX melanoma, PC-3 prostate, and CAKI-1 renal). […] The α-anomers of these compounds were also screened but were not found to be cytotoxic (data not shown).
(§2) CCRF-CEM cells are a T-cell leukemia cell line that is known to be very sensitive to nucleoside analogs.
(§3) All cell lines were grown in RPMI 1640 medium containing 10% fetal bovine serum, sodium bicarbonate, and 2 mM L-glutamine. For in vitro evaluation of the sensitivity of these cell lines to compounds, cells were plated in 96-well microtiter plates and then were exposed continuously to various concentrations of the compounds for 72 h at 37° C. Cell viability was measured using the MTS assay [3-(4,5-dimethylthiazol-2-yl)-5-(3-carboxymethoxyphenyl)-2-(4-sulfophenyl)-2H-tetrazolium, inner salt; MTS and an electron coupling reagent (phenazine ethosulfate; PES)]. Absorbance was read at 490 nm. The background absorbance mean was subtracted from the data followed by conversion to percent of control. The drug concentrations producing survival just above and below 50% level were used in a linear regression analysis to calculate the IC50.

[1] = tested on: cells that lacked dCyd kinase; test: Cytotoxicity in cells that lacked dCyd kinase; format: cell-based
Source text: as §2

CCRF-CEM cells = test: Intracellular triphosphate in CCRF-CEM cells; format: cell-based, human
Experimental: CCRF-CEM cells were incubated with methyl-F-araC, araC, and gemcitabine, and the amount of intracellular triphosphate (TP) of each compound was determined.
CCRF-CEM cell extracts were collected by centrifugation and resuspended in ice-cold 0.5 M perchloric acid. The samples were centrifuged at 12,000×g, and the supernatant fluid was neutralized and buffered by adding 4 M KOH and 1 M potassium phosphate, pH 7.4. KClO4 was removed by centrifugation, and a portion of the supernatant fluid was injected onto a strong anion exchange HPLC (Bio Basic anion exchange column, Thermo Electron Corp., Bellefonte, Pa.). Nucleotides were eluted with a 30-min linear salt and pH gradient from 6 mM ammonium phosphate (pH 2.8) to 900 mM ammonium phosphate (pH 6). Peaks were detected as they eluted from the column by their absorbance at 254 nm.

NCI-H23 NSCL [2] = test: NCI-H23 NSCL tumor xenograft, sc, in nude mice; format: in vivo, female NCr-nu athymic mice
Experimental: (§4) Because of its potent in vitro activity, methyl-F-araC (13) was evaluated for in vivo activity against three solid tumor xenografts (CAKI-1 renal, NCI-H23 NSCL, and LOX melanoma). Prior to these studies the maximally tolerated dose of methyl-F-araC was determined to be 3 mg/kg given once per day for 9 consecutive days. […] Female NCr-nu athymic mice were implanted subcutaneously with CAKI-1 tumor fragments. When tumors were approximately 100-250 mg, mice were treated ip with methyl-F-araC at 1, 2, or 3 mg/kg/dose (1 treatment each day for 9 consecutive days starting on day 14). Each treatment group contained 6 mice. The tumors were measured with calipers twice each week, and the weight (mg) was calculated. In this experiment there were 3 of 6 tumor-free survivors at the end of the experiment (62 days post implant) in each treatment group. Good results were also seen against NCI-H23 and LOX human tumor xenografts (Table 2).
(§5) Xenografts were implanted sc on the flanks of female nude mice. When tumors were approximately 100-250 mg, they were treated ip with 3 or 4 mg/kg/dose of methyl-F-araC (q1d×9) and tumor size was measured twice weekly thereafter. Tumor-free survivors are the number of mice that were tumor-free at the end of the experiment/total number of mice in the treatment group. ^aThe difference in the median of times poststaging for tumors of the treated (T) and control (C) groups to double in mass three times. ^bThe difference in the median of times poststaging for tumors of the treated (T) and control (C) groups to double in mass two times. ^cThe difference in the median of times poststaging for tumors of the treated (T) and control (C) groups to double in mass four times.
(§6) Mice, obtained from various commercial suppliers, were housed in microisolator cages and were allowed commercial mouse food and water ad libitum. […]
(§7) Antitumor activity was assessed on the basis of delay in tumor growth (T-C). […] Tumors were measured in two dimensions (length and width) twice weekly, and the tumor weight was calculated using the formula (length×width^2)/2 and assuming unit density. […]

DLD-1 colon = test: In vitro cytotoxicity (MTS, 72 h), DLD-1; format: cell-based; conditions: Homo sapiens; DLD-1, 72 hours of incubation
Experimental: as §1, §3

PC-3 prostate = test: In vitro cytotoxicity (MTS, 72 h), PC-3; format: cell-based; conditions: Homo sapiens; PC-3, 72 hours of incubation
Experimental: as §1, §3

CAKI-1 renal [3] = test: CAKI-1 renal tumor xenograft, sc, in nude mice; format: in vivo, female NCr-nu athymic mice
Experimental: as §4, §5
Mice, obtained from various commercial suppliers, were housed in microisolator cages and were allowed commercial mouse food and water ad libitum. The three human tumors were obtained from the Developmental Therapeutics Program Tumor Repository (Frederick, Md.) and were maintained in in vivo passage. Only tumor lines that tested negative for selected viruses were used. For the in vivo evaluation of the sensitivity of human tumors to the compounds, female NCr-nu athymic mice were implanted subcutaneously (sc) with 30-40 mg tumor fragments. In each experiment, methyl-F-araC (13) was tested at three dosage levels. […]
as §7

Maximally tolerated dose = format: in vivo, mice; conditions: once per day for 9 consecutive days
Experimental: as §4

CAKI-1 renal [4] = test: In vitro cytotoxicity (MTS, 72 h), CAKI-1; format: cell-based; conditions: Homo sapiens; CAKI-1, 72 hours of incubation
Experimental: as §1, §3

LOX melanoma [5] = test: LOX melanoma tumor xenograft, sc, in nude mice; format: in vivo, female NCr-nu athymic mice
Experimental: as §4, §5, §6, §7

NCI-H23 NSCL [6] = test: In vitro cytotoxicity (MTS, 72 h), NCI-H23; format: cell-based; conditions: Homo sapiens; NCI-H23, 72 hours of incubation
Experimental: as §1, §3

ZR-75-1 breast = test: In vitro cytotoxicity (MTS, 72 h), ZR-75-1; format: cell-based; conditions: Homo sapiens; ZR-75-1, 72 hours of incubation
Experimental: as §1, §3

SNB-7 CNS = test: In vitro cytotoxicity (MTS, 72 h), SNB-7; format: cell-based; conditions: Homo sapiens; SNB-7, 72 hours of incubation
Experimental: as §1, §3

[7] = tested on: eight human tumor cell lines; test: In vitro cytotoxicity, panel of eight human tumor cell lines; format: cell-based
Experimental: as §1, §3

LOX melanoma [8] = test: In vitro cytotoxicity (MTS, 72 h), LOX; format: cell-based; conditions: Homo sapiens, 72 hours of incubation
Experimental: as §1, §3

[9] = 3 mg/kg/dose ip q1d×9, tumor-free/total at end of experiment

- melting point: 270 °C (dec.)
Structure (SMILES): C[C@]1(CO)O[C@@H](n2cnc3c(N)nc(N)nc32)[C@@H](F)[C@@H]1O [Compound 21, 2,6-Diamino-9-(2-deoxy-2-fluoro-4-C-methyl-β-D-arabinofuranosyl)purine]
- IC50 (CCRF-CEM leukemia): ~0.5 µM
- cytotoxicity with addition of deoxycoformycin (CCRF-CEM leukemia; deoxycoformycin (adenosine deaminase inhibitor) added): prevented

Structure (SMILES): C[C@]1(CO)O[C@@H](n2cnc3c(=O)[nH]c(N)nc32)[C@@H](F)[C@@H]1O [Compound 22, 9-(2-Deoxy-2-fluoro-4-C-methyl-β-D-arabinofuranosyl)guanine]
- IC50 (CCRF-CEM leukemia): ~0.5 µM

Structure (SMILES): C[C@]1(CO)O[C@@H](n2cnc3c(N)nc(Cl)nc32)[C@@H](F)[C@@H]1O [Compound 24, 2-Chloro-9-(2-deoxy-2-fluoro-4-C-methyl-β-D-arabinofuranosyl)adenine]
- activity in cells that lacked dCyd kinase [1]: neither compound was active
- IC50 (CCRF-CEM leukemia): ~0.5 µM
- inhibition of CCRF-CEM cell growth with dCyd added to the culture medium (CCRF-CEM leukemia): prevented

Structure (SMILES): Nc1ccn([C@@H]2O[C@H](CO)[C@@H](O)[C@@H]2O)c(=O)n1 [araC]
- intracellular concentration of triphosphate (CCRF-CEM cells; 100 nM of compound, two hours, mean±SD, N=3): 12±1 pmoles/10^6 cells
- intracellular half-life of triphosphate (CCRF-CEM cells; CCRF-CEM cells, N=2): 5.6 h

- intracellular concentration of triphosphate (CCRF-CEM cells; human, 2 h, 100 nM): 17±3 pmoles/10^6 cells
Structure (SMILES): Nc1ccn([C@@H]2O[C@H](CO)[C@@H](O)C2(F)F)c(=O)n1 [gemcitabine]

Structure (SMILES): C[C@]1(CO)O[C@@H](n2ccc(N)nc2=O)[C@@H](F)[C@@H]1O [methyl-F-araC, 1-(2-Deoxy-2-fluoro-4-C-methyl-β-D-arabinofuranosyl)cytosine]
- activity in cells that lacked dCyd kinase [1]: neither compound was active
- T-C (days) (NCI-H23 NSCL [2]; 4 mg/kg/dose ip q1d×9, time to double in mass two times): 18.4^b days
- Tumor-free survivors (NCI-H23 NSCL [2]; 4 mg/kg/dose ip q1d×9, tumor-free/total at end of experiment): 0/5
- in vivo activity (in words) (NCI-H23 NSCL [2]; NCI-H23 xenograft): Good results
- IC50 (CCRF-CEM leukemia): 0.012 ± 0.003 µM
- inhibition of CCRF-CEM cell growth with dCyd added to the culture medium (CCRF-CEM leukemia): prevented
- IC50 (DLD-1 colon): > 200 µM
- IC50 (PC-3 prostate): > 200 µM
- T-C (days) (CAKI-1 renal [3]; 3 mg/kg/dose ip q1d×9, time to double in mass three times): >34.6^a days
- Tumor-free survivors (CAKI-1 renal [3]; [9]): 3/6
- tumor-free survivors in each treatment group (CAKI-1 renal [3]; 1, 2, or 3 mg/kg/dose ip, 9 days from day 14, 62 days post implant): 3 of 6
- in vivo activity (in words) (CAKI-1 renal [3]; CAKI-1 tumors, FIG. 1): excellent activity
- intracellular concentration of triphosphate (CCRF-CEM cells; human, 2 h, 100 nM): 16±2 pmoles/10^6 cells
- maximally tolerated dose (Maximally tolerated dose): 3 mg/kg
- IC50 (CAKI-1 renal [4]): 0.54 ± 0.58 µM
- T-C (days) (LOX melanoma [5]; 3 mg/kg/dose ip q1d×9, time to double in mass four times): 15.0^c days
- Tumor-free survivors (LOX melanoma [5]; [9]): 0/6
- in vivo activity (in words) (LOX melanoma [5]; LOX xenograft): Good results
- IC50 (NCI-H23 NSCL [6]): 0.19 ± 0.01 µM
- IC50 (ZR-75-1 breast): > 200 µM
- IC50 (SNB-7 CNS): > 200 µM
- cytotoxicity (in words) [7]: significant cytotoxicity against four of the cell lines
- IC50 (LOX melanoma [8]): 0.24 ± 0.15 µM
